Results published in ChEMBL document CHEMBL1140006, “2-Cycloalkyl phenoxyacetic acid CRTh2 receptor antagonists” (Bioorg Med Chem Lett, 2007).
Active and inactive are the calls of the source. No cut-off for these calls is given here.

What was measured:
[1] = target: T1, Prostaglandin D2 receptor 2 (Homo sapiens, UniProt Q9Y5Y4); test: Displacement of […] from human CRTh2 receptor expressed in CHO cells; type: cell-based
T1 sequence (Q9Y5Y4 whole entry): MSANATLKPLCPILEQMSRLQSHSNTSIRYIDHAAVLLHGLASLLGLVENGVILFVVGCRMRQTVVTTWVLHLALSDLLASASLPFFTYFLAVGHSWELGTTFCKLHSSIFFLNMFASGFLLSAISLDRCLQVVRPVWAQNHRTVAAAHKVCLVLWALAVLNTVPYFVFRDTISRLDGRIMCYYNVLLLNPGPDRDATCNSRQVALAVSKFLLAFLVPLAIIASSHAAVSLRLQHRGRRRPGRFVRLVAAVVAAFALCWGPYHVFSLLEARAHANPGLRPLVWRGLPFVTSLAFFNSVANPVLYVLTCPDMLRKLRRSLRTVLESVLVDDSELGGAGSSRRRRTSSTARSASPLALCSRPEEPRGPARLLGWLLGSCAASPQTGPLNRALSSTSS

[2] = target: T2, Prostaglandin D2 receptor (Homo sapiens, UniProt Q13258); test: Binding affinity at prostanoid DP receptor
T2 sequence (Q13258 whole entry): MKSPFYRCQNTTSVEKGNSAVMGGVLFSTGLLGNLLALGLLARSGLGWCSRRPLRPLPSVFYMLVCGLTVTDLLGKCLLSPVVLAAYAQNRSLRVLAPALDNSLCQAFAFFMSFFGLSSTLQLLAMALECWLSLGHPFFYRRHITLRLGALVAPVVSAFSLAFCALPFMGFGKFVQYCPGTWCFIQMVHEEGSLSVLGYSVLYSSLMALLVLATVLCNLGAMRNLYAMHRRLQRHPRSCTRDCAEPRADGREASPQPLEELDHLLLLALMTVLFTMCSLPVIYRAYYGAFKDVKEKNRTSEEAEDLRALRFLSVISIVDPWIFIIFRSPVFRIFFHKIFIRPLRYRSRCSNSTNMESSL

[3] = tested on: Eosinophil; test: Inhibition of 13,14-dihydro-15-ketoprostaglandin D2-stimulated human eosinophils shape change; type: functional, cell-based
[4] = tested on: Eosinophil; test: Inhibition of 13,14-dihydro-15-ketoprostaglandin D2-stimulated human eosinophils shape change upto 10 uM; type: functional, cell-based
[5] = target: Cytochrome P450 3A4 (Homo sapiens, UniProt P08684); test: Inhibition of CYP3A4; type: ADME
Cytochrome P450 3A4, sequence (P08684 whole entry): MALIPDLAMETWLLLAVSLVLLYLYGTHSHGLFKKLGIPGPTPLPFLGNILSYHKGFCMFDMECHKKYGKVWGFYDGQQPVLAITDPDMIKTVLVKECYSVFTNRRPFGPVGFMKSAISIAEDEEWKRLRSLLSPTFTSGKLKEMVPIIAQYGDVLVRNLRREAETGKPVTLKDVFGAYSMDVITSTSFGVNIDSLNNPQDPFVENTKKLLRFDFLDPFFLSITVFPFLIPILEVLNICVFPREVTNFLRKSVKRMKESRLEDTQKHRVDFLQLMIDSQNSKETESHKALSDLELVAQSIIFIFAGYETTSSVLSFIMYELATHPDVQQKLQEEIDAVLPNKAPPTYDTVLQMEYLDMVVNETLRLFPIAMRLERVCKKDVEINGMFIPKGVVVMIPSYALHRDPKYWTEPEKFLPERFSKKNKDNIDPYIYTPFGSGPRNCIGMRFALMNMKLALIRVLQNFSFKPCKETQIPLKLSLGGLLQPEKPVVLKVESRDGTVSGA

[6] = target: Cytochrome P450 2D6 (Homo sapiens, UniProt P10635); test: Inhibition of CYP2D6; type: ADME
Cytochrome P450 2D6, sequence (P10635 whole entry): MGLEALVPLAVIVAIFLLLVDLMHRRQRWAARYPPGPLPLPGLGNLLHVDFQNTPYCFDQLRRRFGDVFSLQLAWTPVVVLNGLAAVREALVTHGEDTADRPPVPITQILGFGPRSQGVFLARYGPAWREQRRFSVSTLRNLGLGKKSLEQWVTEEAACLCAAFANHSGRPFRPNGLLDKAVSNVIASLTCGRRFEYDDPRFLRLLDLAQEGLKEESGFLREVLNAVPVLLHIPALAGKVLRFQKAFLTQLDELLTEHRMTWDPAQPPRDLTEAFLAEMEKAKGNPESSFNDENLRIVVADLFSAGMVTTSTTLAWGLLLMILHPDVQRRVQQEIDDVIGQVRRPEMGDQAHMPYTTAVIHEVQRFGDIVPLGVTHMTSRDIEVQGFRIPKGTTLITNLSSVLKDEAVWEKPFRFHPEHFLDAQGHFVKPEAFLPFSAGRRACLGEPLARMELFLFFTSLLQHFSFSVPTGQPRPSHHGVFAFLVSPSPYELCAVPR

[7] = target: T3, Cytochrome P450 1A2 (Homo sapiens, UniProt P05177); test: Inhibition of CYP1A2; type: ADME
T3 sequence (P05177 whole entry): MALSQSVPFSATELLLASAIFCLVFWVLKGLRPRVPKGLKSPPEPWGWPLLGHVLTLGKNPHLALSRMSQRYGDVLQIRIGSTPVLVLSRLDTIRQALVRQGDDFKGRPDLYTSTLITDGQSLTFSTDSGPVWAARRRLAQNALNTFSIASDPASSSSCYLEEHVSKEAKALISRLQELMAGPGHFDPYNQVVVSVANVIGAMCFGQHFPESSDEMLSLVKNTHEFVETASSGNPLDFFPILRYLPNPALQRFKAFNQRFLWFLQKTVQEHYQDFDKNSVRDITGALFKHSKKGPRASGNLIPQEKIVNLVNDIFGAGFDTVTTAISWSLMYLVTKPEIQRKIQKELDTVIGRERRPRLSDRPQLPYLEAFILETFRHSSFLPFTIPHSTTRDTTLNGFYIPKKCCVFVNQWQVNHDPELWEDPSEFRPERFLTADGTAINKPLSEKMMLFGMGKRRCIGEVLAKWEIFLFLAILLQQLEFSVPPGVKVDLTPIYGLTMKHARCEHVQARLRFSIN

[8] = target: Cytochrome P450 2C19 (Homo sapiens, UniProt P33261); test: Inhibition of CYP2C19; type: ADME
Cytochrome P450 2C19, sequence (P33261 whole entry): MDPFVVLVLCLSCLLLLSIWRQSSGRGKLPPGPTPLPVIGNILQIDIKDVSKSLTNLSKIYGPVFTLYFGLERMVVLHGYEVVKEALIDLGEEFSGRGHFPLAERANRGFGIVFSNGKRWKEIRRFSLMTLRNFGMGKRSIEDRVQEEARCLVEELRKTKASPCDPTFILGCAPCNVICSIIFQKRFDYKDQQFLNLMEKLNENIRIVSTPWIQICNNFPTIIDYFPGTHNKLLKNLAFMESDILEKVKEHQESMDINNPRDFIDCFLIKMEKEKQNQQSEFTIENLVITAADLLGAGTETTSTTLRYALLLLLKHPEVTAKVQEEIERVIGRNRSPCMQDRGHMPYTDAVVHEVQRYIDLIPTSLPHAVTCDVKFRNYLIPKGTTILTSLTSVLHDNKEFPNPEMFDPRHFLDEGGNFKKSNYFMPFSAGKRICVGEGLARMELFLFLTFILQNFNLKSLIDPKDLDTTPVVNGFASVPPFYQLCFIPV

[9] = target: Cytochrome P450 2C9 (Homo sapiens, UniProt P11712); test: Inhibition of CYP2C9; type: ADME
Cytochrome P450 2C9, sequence (P11712 whole entry): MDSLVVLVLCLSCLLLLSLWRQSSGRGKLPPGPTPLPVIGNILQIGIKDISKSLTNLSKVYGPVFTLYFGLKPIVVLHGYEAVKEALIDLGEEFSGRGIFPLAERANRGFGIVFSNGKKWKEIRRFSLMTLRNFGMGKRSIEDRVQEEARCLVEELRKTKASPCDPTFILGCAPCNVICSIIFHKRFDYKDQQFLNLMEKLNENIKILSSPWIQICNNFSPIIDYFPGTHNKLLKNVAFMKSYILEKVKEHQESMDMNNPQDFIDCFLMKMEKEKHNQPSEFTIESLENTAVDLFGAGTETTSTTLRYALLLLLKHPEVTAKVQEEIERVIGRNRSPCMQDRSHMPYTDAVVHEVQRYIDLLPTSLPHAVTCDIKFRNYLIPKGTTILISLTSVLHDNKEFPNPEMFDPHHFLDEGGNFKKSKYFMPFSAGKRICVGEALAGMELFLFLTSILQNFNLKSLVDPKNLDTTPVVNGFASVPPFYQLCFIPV

[10] = Intrinsic clearance in human microsomes; type: ADME, Microsome
[11] = Intrinsic clearance in rat microsomes; type: ADME, Microsome
[12] = Permeability from apical to basolateral side of Caco-2 cell membrane; type: ADME, cell-based; settings: human, read-out: permeability
[13] = Permeability from basolateral to apical side of Caco-2 cell membrane; type: ADME, cell-based; settings: human, read-out: permeability
[14] = Half life in rat at 0.5 mg/kg, iv; type: ADME, organism-based; set-up: dose 0.5 mg/kg, route intravenous; settings: in vivo
[15] = Clearance in rat; type: ADME, organism-based; settings: in vivo
[16] = Volume of distribution at steady state in rat; type: ADME, organism-based; settings: in vivo, read-out: Vdss
[17] = Oral bioavailability in rat at 2 mg/kg; type: ADME, organism-based; settings: in vivo
[18] = AUCall in rat; type: ADME, organism-based; settings: plasma
[19] = Cmax in rat; type: ADME, organism-based; settings: in vivo
[20] = target: Prostaglandin E2 receptor EP2 subtype (Homo sapiens, UniProt P43116); test: Binding affinity at prostanoid EP2 receptor
Prostaglandin E2 receptor EP2 subtype, sequence (P43116 whole entry): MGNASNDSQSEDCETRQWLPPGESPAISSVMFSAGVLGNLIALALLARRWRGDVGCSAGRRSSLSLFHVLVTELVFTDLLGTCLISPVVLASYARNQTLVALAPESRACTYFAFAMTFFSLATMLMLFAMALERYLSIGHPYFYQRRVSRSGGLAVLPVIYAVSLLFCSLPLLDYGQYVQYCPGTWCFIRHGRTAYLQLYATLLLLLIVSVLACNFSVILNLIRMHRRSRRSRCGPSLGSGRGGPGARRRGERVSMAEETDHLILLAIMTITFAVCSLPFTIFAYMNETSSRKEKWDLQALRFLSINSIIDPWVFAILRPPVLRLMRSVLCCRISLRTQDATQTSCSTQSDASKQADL

[21] = target: T4, Thromboxane A2 receptor (Homo sapiens, UniProt P21731); test: Binding affinity at prostanoid TP receptor
T4 sequence (P21731 whole entry): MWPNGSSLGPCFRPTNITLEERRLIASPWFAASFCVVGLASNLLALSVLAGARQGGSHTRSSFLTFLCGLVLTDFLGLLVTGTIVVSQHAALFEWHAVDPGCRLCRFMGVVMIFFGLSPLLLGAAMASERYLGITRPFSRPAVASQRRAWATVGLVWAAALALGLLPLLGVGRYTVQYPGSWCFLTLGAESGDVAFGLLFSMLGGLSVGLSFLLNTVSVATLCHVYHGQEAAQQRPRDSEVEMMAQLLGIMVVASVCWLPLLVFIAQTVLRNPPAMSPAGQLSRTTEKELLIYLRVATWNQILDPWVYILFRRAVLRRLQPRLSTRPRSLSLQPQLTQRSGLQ

Row | Structure (SMILES) | Ki [1] [nM] | Ki [2] [nM] | IC50 [3] [nM] | further results
1 | COc1ccc(OCC(=O)O)c(C2CCCCC2)c1 | 782 | > 10000 | – | –
2 | Clc1ccc(OCc2nnn[nH]2)c(C2CCCCC2)c1 | > 10000 | > 10000 | – | –
3 | CC1(c2cc(Cl)ccc2OCC(=O)O)CCCCC1 | 90 | 1210 | 451 | –
4 | C[C@@H](Oc1ccc(Cl)cc1C1CCCCC1)C(=O)O | – | > 10000 | – | –
5 | C=CCc1cc(Cl)ccc1OCC(=O)O | 5130 | 4740 | – | –
6 | O=C(O)COc1ccc(Br)cc1C1CCCCC1 | 83 | 5900 | 448 | –
7 | N#Cc1ccc(OCC(=O)O)c(C2CCCCC2)c1 | 230 | > 10000 | 52 | –
8 | OCCOc1ccc(Cl)cc1C1CCCCC1 | > 10000 | > 10000 | – | –
9 | O=C(O)COc1ccc(Cl)cc1C1CCCCCC1 | 59 | 1880 | 248 | Activity [4]: inactive; IC50 [5]: > 10000 nM; IC50 [6]: > 10000 nM; IC50 [7]: > 10000 nM; IC50 [8]: > 10000 nM; IC50 [9]: > 10000 nM; microsomal CLint [10]: 109 µL/min/mg; microsomal CLint [11]: 205 µL/min/mg; Papp A→B [12]: 8.4 ×10⁻⁶ cm/s; Papp B→A [13]: 21.4 ×10⁻⁶ cm/s; half-life [14]: 1.18 h; clearance [15]: 7.3 mL/min/kg; Vd [16]: 0.52 L/kg; bioavailability [17]: 58%; AUC [18]: 11.6 µM·h; Cmax [19]: 4.7 µM
10 | O=C(O)COc1ccc(Cl)cc1C1CCCC1 | 150 | 4800 | 1010 | –
11 | CS(=O)(=O)NC(=O)COc1ccc(Cl)cc1C1CCCCC1 | > 10000 | > 10000 | – | –
12 | C[C@H](Oc1ccc(Cl)cc1C1CCCCC1)C(=O)O | – | 4490 | – | –
13 | O=C(O)CCCOc1ccc(Cl)cc1C1CCCCC1 | 1990 | > 10000 | – | –
14 | Cc1ccc(OCC(=O)O)c(C2CCCCC2)c1 | 353 | > 10000 | – | –
15 | O=C(O)CCOc1ccc(Cl)cc1C1CCCCC1 | 799 | > 10000 | – | –
16 | O=C(O)COc1ccc(F)cc1C1CCCCC1 | 446 | > 10000 | – | –
17 | O=C(O)COc1ccc(-c2ccc(F)cc2)cc1C1CCCCC1 | 99 | 6400 | – | –
18 | O=C(O)COc1ccc(Cl)cc1C1CCCCC1 | 154 | 7600 | 93 | Ki [20]: 3000 nM; Ki [21]: > 10000 nM
19 | Cc1cc(Cl)ccc1OCC(=O)O [METAXON] | > 10000 | > 10000 | – | –
20 | O=C(O)COc1ccccc1C1CCCCC1 | 311 | > 10000 | – | –
21 | COC(=O)COc1ccc(Cl)cc1C1CCCCC1 | 3280 | 8900 | – | –
22 | O=C(O)COc1ccc(C(F)(F)F)cc1C1CCCCC1 | 20 | > 10000 | 172 | –
